Assay results: patent US6803186B2, “Compositions and methods for increasing amino acid absorption in mammals” (The IAMS Company, priority 2001, dated 2004)
Where “and” joins values, the source holds several entries; their conditions need not be identical. Equal entries are not always repeated. Peptide text beside a SMILES is read from it.

T1: canine PepT1 (cPepT1) (Canis lupus familiaris, UniProt Q8WMX5)
T1 construct: endogenous in cells; host or cells: MDCK (Madin-Darby Canine Kidney) cells, whole-cell [3H]-GlySar uptake
T1 sequence (Q8WMX5 1-708): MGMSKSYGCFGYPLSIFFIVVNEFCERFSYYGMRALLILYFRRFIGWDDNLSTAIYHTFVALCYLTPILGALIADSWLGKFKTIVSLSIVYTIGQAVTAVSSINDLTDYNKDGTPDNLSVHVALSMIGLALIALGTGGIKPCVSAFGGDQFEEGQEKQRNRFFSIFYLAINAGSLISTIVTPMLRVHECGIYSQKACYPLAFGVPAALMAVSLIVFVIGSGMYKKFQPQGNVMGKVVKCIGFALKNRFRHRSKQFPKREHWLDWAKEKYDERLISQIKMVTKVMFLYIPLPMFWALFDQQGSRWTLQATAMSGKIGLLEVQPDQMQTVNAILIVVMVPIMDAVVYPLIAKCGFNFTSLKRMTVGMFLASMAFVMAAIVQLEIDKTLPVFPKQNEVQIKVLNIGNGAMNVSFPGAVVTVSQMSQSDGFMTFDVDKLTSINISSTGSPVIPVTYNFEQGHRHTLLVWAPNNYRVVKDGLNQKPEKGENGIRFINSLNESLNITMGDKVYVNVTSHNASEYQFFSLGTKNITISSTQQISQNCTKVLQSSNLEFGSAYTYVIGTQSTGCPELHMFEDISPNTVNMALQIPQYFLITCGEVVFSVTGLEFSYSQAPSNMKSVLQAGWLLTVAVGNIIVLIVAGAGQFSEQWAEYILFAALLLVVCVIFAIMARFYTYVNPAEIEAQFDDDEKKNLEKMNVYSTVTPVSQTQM

B1: canine PepT1 (cPepT1) (Canis lupus familiaris) (protein)
chain: T1 sequence (Q8WMX5 1-708)
notes: endogenous in cells; host or cells: MDCK (Madin-Darby Canine Kidney) cells, whole-cell [3H]-GlySar uptake

What was measured:
[1] = biological target: T1, canine PepT1 (cPepT1); assay: Inhibition of H+-dependent 100 μM GlySar uptake by MDCK cells cultured in LHM; format: cell-based; conditions: for % inhibition of H+-dependent GlySar uptake: 1 mM extracellular substrate, 100 μM GlySar, pH 6.0, 30 min
Description: Characteristic hallmarks of low affinity H^+/peptide cotransport activity, classically defined using membrane vesicles of several species, and more recently by functional expression studies using human, rat, and rabbit PepT1 cDNA, is the recognition of some, but not all, β-lactam antibiotics. […] To determine whether MDCK cPepT1 activity shared these functional features, the uptake of 100 μM GlySar in the absence and presence of pH 7.5 and pH 6.0 buffer, and, in pH 6.0 buffers, the presence of 1 mM additional GlySar (self-inhibitor control), 3 mM Penicillin-G, 30 μM cefadroxil, or 3 mM cefadroxil was compared (FIG. 13).
Other hallmarks of PepT1 function are the decreased ability of Gly-containing peptides to inhibit GlySar, in proportion to their length, and sensitivity to inhibition by carnosine (β-Ala-His).
Accordingly, the following general regimen was used to perform a series of experiments that evaluated the relative abilities of candidate di-(primarily) and tri-peptides to inhibit GlySar uptake by endogenously expressed cPepT1 in MDCK cells:
1. Sixty thousand cells/well were plated into collagen-coated 24-well trays and cultured at 37° C. in an atmosphere of 95% air/5% CO2 in DMEM/10% FCS that contained antibiotics for 1 day.
2. The media was removed and cells were cultured in LHM/10% FCS/antibiotics for 1 day.
3. The media was removed and cells cultured in LHM/10% FCS (no antibiotics) for 20 h.
4. The media was removed and cells cultured for 30 min in air at 37° C. in depletion medium (25 mM Hepes/Tris (pH 7.5), 140 mM NaCl, 5.4 mM KCl, 1.8 mM CaCl2, 0.8 mM MgSO4, and 5 mM glucose, to normalize intracellular nutrient pools.
(§1) 5. Transport was initiated by replacing depletion medium with uptake medium (depletion medium adjusted to pH 6.0 or kept at pH 7.4) that contained 100 μM GlySar (at a specific activity of 5 μCi/mL, with [^3H]-GlySar supplying 2.88% of total GlySar substrate) and (or) 1 mM of inhibiting peptide.
In total, 23 inhibitory peptides and 2 drug compounds were screened using this protocol.

[2] = biological target: T1, canine PepT1 (cPepT1); assay: Competitor substrate inhibition of [3H]-GlySar uptake by confluent MDCK cells (Example 1); format: cell-based; conditions: for inhibition of H+-dependent uptake of GlySar: 10 mM competitor; for Glysylsarcosine uptake: extracellular pH 6.0, 10 mM competitor, 2.88 [3H]-glycylsarcosine, 30 min; for % inhibition of pH 6.0 uptake: pH 6.0, 10 mM competitor
Description: (§2) Potential expression of PepT1 transport activity (H^+-dependent, dipeptide inhibitable, low-affinity dipeptide transport) by confluent MDCK cells was evaluated using whole-cell transport techniques and glycylsarcosine (GlySar) as a model dipeptide substrate. Cells were seeded at 60,000 cells/cm^2 into 24-well trays that had been coated with rat tail collagen or poly-L-lysine and cultured ([…]:5% CO2 at 37° C.) for 3 d in media consisting of Dulbecco's Modified Eagle Medium/10% fetal calf serum/1% antimicrobial antibacterial medium. Absorption (pmols/mg protein) of [^3H]-glycyl-L-sarcosine (GlySar, 6 mCi/mL, Moravek Biochemicals, Brea, Calif.) was determined using the 24-well cluster tray method and representative scintillation counting. Before transport, cells were incubated at 37° C. for 30 min in 25 mM Hepes/Tris (pH 7.5), 140 mM NaCl, 5.4 mM KCl, 1.8 mM CaCl2, 0.8 mM MgSO4, and 5 mM glucose (uptake buffer) to normalize intracellular amino acid and peptide pools. Transport was initiated by the addition of 0.25 mL of uptake buffer that contained 2.88 μm GlySar. After 30 min of uptake at 37° C., transport was terminated by rapid washing of cells with 4×2 mL 4° C. uptake buffer. Cellular protein was precipitated with 10% trichloroacetic acid and the supernatant recovered and counted to determine radioactivity (^3H) content. Cellular protein was then solubilized in 0.2 N NaOH and 0.2% SDS and quantified by the Lowry procedure, using bovine serum albumin as a standard. The amount of H^+-dependent GlySar absorbed was calculated as the difference between uptake in pH 6.0 and pH 7.5 uptake buffers. The amount of competitor substrate-inhibitable GlySar uptake was calculated as the quotient of GlySar uptake in the absence and presence of 10 mM competitor substrate (dipeptide or amino acid) multiplied by 100%.

[3] = tested on: MDCK cells; assay: Inhibition of H+-independent GlySar uptake by MDCK cells; format: cell-based, canine; conditions: 1 mM peptide, 100 μM GlySar
Description: as §1

[4] = biological target: T1, canine PepT1 (cPepT1); assay: Inhibition of H+-dependent 100 μM GlySar uptake by MDCK cells cultured in LHM; format: cell-based; conditions: 100 μM extracellular substrate
[5] = substrate: CN(CC(=O)O)C(=O)CN; assay: Characterization of GlySar uptake by MDCK cells (Km, pH gradient, time course); format: cell-based, canine; conditions: 37.0 °C
Description: as §2, with “Transport was initiated by the addition of 0.25 mL of uptake buffer that contained 2.88 μm GlySar. After 30 min of uptake at 37° C., transport was terminated by rapid washing of cells with 4×2 mL 4° C. uptake buffer.” left out
To preliminarily characterize the kinetic parameters of peptide transport by MDCK cells, the uptake of GlySar in media that contained pH 6.0 and 0.00064, 0.0025, 0.010, 0.04, 0.160, 0.640, 2.56, or 10.2 mM of GlySar was measured (FIG. 6). […]
To confirm that H^+-dependent GlySar uptake was saturable, and therefore mediated, the uptake of GlySar from pH 6.0 and 7.4 uptake buffers containing 0.025, 0.1, 0.4, 1.6, 6.4, or 25.6 mM GlySar was evaluated (FIG. 12). […]

Molecule | % inhibition of H+-dependent GlySar uptake [1] | Glysylsarcosine uptake ([2]; collagen-coated trays) | Glysylsarcosine uptake ([2]; poly-L-lysine-coated trays) | inhibition of H+-independent GlySar uptake [3] | % inhibition of H+-dependent GlySar uptake [4] | other results
NCC(=O)O [Gly] | 5.0% | – | – | – | – | –
CC(C)C[C@H](N)C(=O)N[C@@H](Cc1c[nH]c2ccccc12)C(=O)O [LeuTrp] | 113% | 7.68 ± 1.37 pmol 30 min^−1 mg^−1 protein | 5.50 ± 0.58 pmol 30 min^−1 mg^−1 protein | 46% | 58% | inhibition of H+-dependent uptake of GlySar ([2]; cells grown on collagen): 88%; inhibition of H+-dependent uptake of GlySar ([2]; cells grown on poly-lysine): 87%; % inhibition of pH 6.0 uptake ([2]; collagen-coated trays): 11.7%; % inhibition of pH 6.0 uptake ([2]; poly-L-lysine-coated trays): 13.0%
CC(C)C[C@H](N)C(=O)O [Leucine] | neither Leu nor Trp significantly influenced | 63.0 ± 4.00 pmol 30 min^−1 mg^−1 protein | 41.93 ± 2.70 pmol 30 min^−1 mg^−1 protein | – | – | –
CC1(C)S[C@@H]2[C@H](NC(=O)Cc3ccccc3)C(=O)N2[C@H]1C(=O)O [Penicillin-G] | 0% | – | – | – | – | inhibition of H+-dependent GlySar uptake ([1]; 3 mM Penicillin-G, 100 μM GlySar (FIG. 13)): not inhibited
N[C@@H](Cc1c[nH]c2ccccc12)C(=O)O [Trp, tryptophan] | neither Leu nor Trp significantly influenced | – | – | – | – | –
CC(C)C[C@H](NC(=O)[C@@H](N)Cc1c[nH]c2ccccc12)C(=O)O [TrpLeu] (H-Trp-Leu-OH; N-terminus and C-terminus assumed) | 117% and 116% | 5.21 ± 0.39 pmol 30 min^−1 mg^−1 protein | 3.44 ± 0.27 pmol 30 min^−1 mg^−1 protein | 36% | 92% and 94% | inhibition of H+-dependent uptake of GlySar ([2]; cells grown on collagen): 92%; inhibition of H+-dependent uptake of GlySar ([2]; cells grown on poly-lysine): 92%; % inhibition of pH 6.0 uptake ([2]; collagen-coated trays): 8.0%; % inhibition of pH 6.0 uptake ([2]; poly-L-lysine-coated trays): 8.1%
N[C@@H](Cc1c[nH]c2ccccc12)C(=O)N[C@@H](Cc1c[nH]c2ccccc12)C(=O)O [TrpTrp] (H-Trp-Trp-OH; N-terminus and C-terminus assumed) | – | – | – | about 22% | 62% | –
MetGlyMetMet (MGMM; OTHER INFORMATION: tetrapeptide) | 50% | – | – | – | – | –
[Gly]4 (GGGG) [positive control (model) substrate] | 19% | – | – | – | – | –
B1 | – | – | – | – | – | Km ([5]; other: MDCK cells seeded at 60K/well grown in LHM (FIG. 12)): 1100 µM and 1000 µM; Km ([5]; other: MDCK cells, only pH 6.0 uptake buffer, pH 6.0): 1100 µM; Km ([5]; other: confluent MDCK cells, pH 6.0 media, graphical evaluation (FIG. 6), pH 6.0): 4000 µM
